The record followed here is PubChem BioAssay AID1996.

Converted amounts (≈) assume the structure as drawn. Some results are limits rather than exact numbers.

For the data set the following is noted: buffer; pH 7.4; 200.0 µM.
The compound `CN(CCC#N)C(=O)c1cc2c(Cl)nc3ccccc3c2s1` yielded a solubility (kinetic) of 1.1 µg/mL (≈ 3.34 µM).

For `CCNC(=O)COC(=O)c1cc(C)n(-c2ccccc2)c1C`, the solubility (kinetic) is greater than 45.1 µg/mL. For `Cc1cc(C(=O)O/N=C(\N)c2ccc(C(C)(C)C)cc2)no1` the value was 2.9 µg/mL (≈ 9.62 µM); for `CCN(CC(=O)NCc1cccs1)C(=O)c1ccc(S(=O)(=O)N(C)c2ccccc2)cc1`, greater than 70.7 µg/mL. Compound `O=C(CSc1ccccc1)NC1CCCCCCC1` had a kinetic solubility of 40.6 µg/mL (≈ 146 µM). In the case of `COc1cccc(C=NCCCN=Cc2cccc(OC)c2O)c1O`, the solubility (kinetic) is greater than 51.4 µg/mL. For `CC(=O)c1cccc(NC(=S)NCCc2ccc(Cl)cc2)c1` the value was 4.1 µg/mL (≈ 12.3 µM); for `COc1ccc(NS(=O)(=O)c2cc(NC(=O)c3cncc(Br)c3)ccc2OC)cc1`, 21.9 µg/mL (≈ 44.5 µM). For `COc1ccc(C(=O)Nc2ccc(NC(=O)Cc3ccccc3)cn2)cc1` the value was 0.4 µg/mL (≈ 1.11 µM); for `COc1cc(NC(=O)Nc2cccc(Cl)c2)c(C(=O)O)cc1OC`, greater than 52.6 µg/mL. For `C=CCn1cccc(C(=O)Nc2ccc(F)cc2)c1=O` the value was greater than 40.8 µg/mL; for `COCCOc1cc(COC)nc(-c2cccc(C)c2)n1`, 25.3 µg/mL (≈ 87.7 µM); for `Cc1ccc(CNC(=O)C2CCCN(c3nc(C)cc(C)n3)C2)cc1` (configuration not stated), 0.6 µg/mL (≈ 1.77 µM). Regarding `O=C(O)CCCC(=O)Nc1ccc(Oc2ncnc3cc(Cl)ccc23)nc1`, the kinetic solubility was greater than 58 µg/mL.

With `COc1ccc(N2C(=O)CC(NCC#N)C2=O)cc1` (configuration not stated), the kinetic solubility came out at 33.1 µg/mL (≈ 128 µM).

The compound `O=C(CCCc1cccs1)Nc1nccs1` displayed a kinetic solubility of 26.8 µg/mL (≈ 106 µM).

`CC(=O)Nc1ccc(C(=O)COC(=O)c2cc(C)oc2C)c(F)c1`: the kinetic solubility amounted to 7.8 µg/mL (≈ 23.4 µM). To `CCOC(=O)C1CCN(S(=O)(=O)c2c(Cl)ccc3nonc23)CC1` belongs greater than 56.1 µg/mL.

For `NS(=O)(=O)c1ccc(NC(=O)COC(=O)C2CC2)cc1`, the kinetic solubility is greater than 44.7 µg/mL.

In turn, `COc1ccccc1N1CC(C(=O)NCC2COc3ccccc3O2)CC1=O` (configuration not stated) yielded a kinetic solubility greater than 57.4 µg/mL.

Compound `O=C(CSc1ccc(-c2cccnc2)nn1)N1CCCCC1` returned a kinetic solubility greater than 47.2 µg/mL. To `O=C(c1cccnc1)N1CCN(c2ccc3ccccc3n2)CC1` belongs 39.3 µg/mL (≈ 123 µM); to `O=C(CCCn1cnc([N+](=O)[O-])n1)Nc1cc(Cl)ccc1O`, greater than 48.9 µg/mL; to `O=C1CCC(C(=O)OCC(=O)Nc2cc(Cl)ccc2F)=NN1`, greater than 49.2 µg/mL.

`O=C(O)c1ccc(Cn2c(=S)[nH]c3cc(Cl)ccc3c2=O)cc1`: the kinetic solubility was greater than 52 µg/mL. To `O=C(CCCN1C(=O)c2ccccc2C1=O)Nc1ccccc1` belongs greater than 46.3 µg/mL; to `CCc1ccccc1NC(=O)Nc1ccsc1C(=O)OC`, 16.2 µg/mL (≈ 53.2 µM).

For `Cc1cc(C(=O)Nc2ccc(Br)cc2)cs1`, the kinetic solubility was found to be 0.7 µg/mL (≈ 2.36 µM). For `Cc1ccc2c(=O)cc(C(=O)NCc3ccccc3)oc2c1C` the value was less than 0.7 µg/mL; for `CN(C)S(=O)(=O)c1ccc(N2CCCC2)c(C(=O)Nc2nccs2)c1`, 51.6 µg/mL (≈ 136 µM); for `O=C(COC(=O)/C=C/c1ccc2c(c1)OCO2)NCc1ccccc1`, 1.5 µg/mL (≈ 4.42 µM).

Turning to `O=C(O)CC(NC(=O)C1CCCCC1)c1cc([N+](=O)[O-])ccc1Cl` (configuration not stated), the kinetic solubility was greater than 53.2 µg/mL.

The compound `O=C(NC(=S)NNC(=O)c1cccs1)c1ccccc1` showed a kinetic solubility greater than 45.8 µg/mL. For `Br.Cn1c(=N)n(CC(=O)c2ccccc2)c2ccccc21` the value was greater than 51.9 µg/mL; for `CC(=O)C1=C(C)NC(=S)NC1c1cc([N+](=O)[O-])ccc1O` (configuration not stated), greater than 46.1 µg/mL; for `CCSc1nnc(NC(=O)c2nc3nc(C)cc(C)n3n2)s1`, greater than 50.3 µg/mL. To `Cc1ccc(C)c(C(=O)CCC(=O)Nc2ccc(N3CCN(C)CC3)cc2C)c1` belongs 55.8 µg/mL (≈ 142 µM); to `CC(=O)NC(C)C(=O)OCC(=O)c1ccc(-c2ccccc2)cc1` (configuration not stated), 21.9 µg/mL (≈ 67.3 µM); to `O=C(CSc1nnc(NC(=O)c2ccccc2F)s1)NC1CC1`, greater than 52.9 µg/mL.

Consider `Cc1ccc(F)cc1NC(=O)CCc1c(C)[nH]c(=O)c(C#N)c1C`, for which the kinetic solubility was greater than 49.1 µg/mL. The compound `CCOc1c(Nc2ccc(C(C)C)cc2)c(=O)c1=O` registered a kinetic solubility of 25.3 µg/mL (≈ 97.6 µM). For `COC(=O)c1cc(Sc2c(Cl)cccc2Cl)ccn1` the value was 37 µg/mL (≈ 118 µM); for `CCNC(=O)c1ccc(C23CC4CC(CC(C4)C2)C3)o1`, less than 0.6 µg/mL; for `COc1ccc(-c2nc(N)ncc2-c2ccc(Cl)cc2)c(O)c1`, less than 0.2 µg/mL. To `COc1ccc(-n2c(C)cc(=O)[nH]c2=O)cc1` belongs greater than 34.8 µg/mL. For `Cc1cc(C)cc(NC(=O)C(=O)NCCCN2CCOCC2)c1` the value was greater than 47.9 µg/mL. The compound `C=CCn1c(C)cc(C(=O)COc2ccc(N(C)S(=O)(=O)c3ccc(NC(C)=O)cc3)cc2)c1C` returned a kinetic solubility of 9.3 µg/mL (≈ 18.8 µM). To `Cc1c(C(=O)OCC(=O)NC(C)c2ccccc2)oc2ccccc12` (configuration not stated) belongs 4.4 µg/mL (≈ 13 µM); to `COC(=O)c1ccc(Nc2nc(-c3ccncc3)nc3ccccc23)cc1`, 1.1 µg/mL (≈ 3.09 µM). To `O=C(Nc1ccc(O)cc1C(=O)O)c1cccs1` belongs greater than 39.5 µg/mL; to `O=C(NCCNC(=O)c1cc(Cl)ccc1Cl)c1cnccn1`, greater than 50.9 µg/mL; to `COc1cc(OC)nc(/N=C/N(C)C)n1`, greater than 31.5 µg/mL.

In the case of `COc1ccc(C(=O)COC(=O)[C@@H](NS(=O)(=O)c2ccccc2)C(C)C)cc1`, the kinetic solubility was found to be 7.8 µg/mL (≈ 19.2 µM). To `Cc1ncc([N+](=O)[O-])n1CC(=O)Nc1ccc(F)c(Cl)c1` belongs 0.5 µg/mL (≈ 1.6 µM). For the compound `COC(=O)CCC(=O)Nc1cc(Cl)cc(Cl)c1`, the kinetic solubility was 32.3 µg/mL (≈ 117 µM). As to `CN(CC(=O)N1CCCC1)S(=O)(=O)c1ccc2ccccc2c1`, the solubility (kinetic) was greater than 49.9 µg/mL.

Take `Cn1c(=O)c2c(ncn2CCC(=O)N/N=C/c2ccccc2)n(C)c1=O`: the solubility (kinetic) was greater than 53.2 µg/mL. For `CSc1ccc(CN(C)C(C)C(=O)NCC2CCCCC2)cc1` (configuration not stated) the value was 28.3 µg/mL (≈ 84.6 µM); for `COc1ccccc1CNc1nc(C)c(C(=O)N(C)C)s1`, greater than 45.8 µg/mL; for `O=C(COC(=O)c1cc(=O)[nH]c2ccccc12)Nc1ccccc1F`, 19.7 µg/mL (≈ 57.9 µM). To `COc1ccc(Oc2ncnc3sccc23)cc1` belongs 14.9 µg/mL (≈ 57.7 µM); to `CC(=O)Nc1cc2c(cc1[N+](=O)[O-])OCCO2`, greater than 35.7 µg/mL. On to `CCN(CC)P(c1n(C)cc[n+]1C)N(CC)CC.[I-]`, for which the kinetic solubility is 46.9 µg/mL. To `CN1CCN(/N=C/c2ccc(N(C)c3ccccc3)cc2)CC1` belongs greater than 46.3 µg/mL; to `Cc1ccc2c(C(=O)CCl)c(C)[nH]c2c1`, 3.4 µg/mL (≈ 15.3 µM); to `Cc1ccc(CN2CCN(C3CCC3)CC2CCO)cc1` (configuration not stated), 42.4 µg/mL (≈ 147 µM). Consider `O=C(NCCCCCCNC(=O)c1ccccc1O)c1ccccc1O`, for which the kinetic solubility was found to be 1.2 µg/mL (≈ 3.37 µM). For `CC(=O)Oc1cccc(-c2nc3ccccc3c(=O)o2)c1` the value was 7.9 µg/mL (≈ 28.1 µM); for `Cc1cc([N+](=O)[O-])nn1CC(=O)NC1CCCCC1`, greater than 39.9 µg/mL; for `CN(CC(=O)NCCc1ccc(S(N)(=O)=O)cc1)CC(=O)Nc1ccc(Cl)cc1`, greater than 65.8 µg/mL. For `O=C(NCCCCNC(=O)c1ccc(F)cc1)c1ccc(F)cc1` the value was 3.9 µg/mL (≈ 11.7 µM); for `CCc1nc(-c2ccccc2)c2ccccn12.O=C(O)C(=O)O`, 38.1 µg/mL; for `O=C(CCCCC(=O)Nc1c(I)cc(I)c(C(=O)O)c1I)Nc1c(I)cc(I)c(C(=O)O)c1I`, greater than 171 µg/mL.

`Cc1ccc(S(=O)(=O)NC(=O)Nc2ccc(C)cc2C)cc1` gave a solubility (kinetic) of 35.1 µg/mL (≈ 110 µM). To `Cc1nc2nc(N)nc(OCc3ccccc3)c2nc1C` belongs 41.6 µg/mL (≈ 148 µM); to `O=C(NCCC(=O)N1CCCCC1)c1ccccc1Cl`, greater than 44.2 µg/mL; to `CN(C)S(=O)(=O)N1CCN(C(=O)c2ccc3c(c2)OCO3)CC1`, greater than 51.2 µg/mL. To `Cc1ccccc1Cn1c(C)nc2ccccc21` belongs greater than 35.4 µg/mL; to `CCSc1ccccc1C(=O)Nc1ccc([N+](=O)[O-])cc1OC`, 1.4 µg/mL (≈ 4.21 µM); to `Cc1ccc(C(=O)NCCCNC(=O)COc2ccc(C)c(C)c2)cn1`, 49.1 µg/mL (≈ 138 µM). For `O=C(c1cc(Cl)ccc1OCc1ccccc1)N1CCOCC1` the value was greater than 49.8 µg/mL; for `Cc1onc(-c2ccccc2)c1C(=O)N(C)CC(=O)Nc1ccc(F)c(F)c1F`, greater than 60.5 µg/mL; for `CC12CCC(C(=O)N(CC3CO3)C1=O)C2(C)C` (configuration not stated), greater than 35.6 µg/mL. Compound `COc1ccc(C(=O)NCCN2CCOCC2)cc1[N+](=O)[O-]` yielded a solubility (kinetic) greater than 46.4 µg/mL. Regarding `NC(=O)c1sc2nc(-c3ccccc3)ccc2c1N`, the solubility (kinetic) came to 1 µg/mL (≈ 3.71 µM).

Regarding `Cc1c(Br)ccc(NC(=O)COc2ccccc2C(N)=O)c1C`, the solubility (kinetic) was less than 0.4 µg/mL.

`COc1ccc2cc(S(=O)(=O)N3CCCC(C)C3)ccc2c1` (configuration not stated): the kinetic solubility was less than 0.7 µg/mL. As for `CC(C)C1N(C(N)=S)N=CC1(C)C` (configuration not stated), the kinetic solubility was greater than 29.9 µg/mL. Turning to `CCOc1ccccc1-n1c(C)cc(C=O)c1C`, the kinetic solubility is greater than 36.5 µg/mL. To `CCOC(=O)Cc1csc(NC(=O)c2ccc(F)cc2)n1` belongs greater than 46.2 µg/mL.

The compound `COc1ccc(N(C(C)=O)c2nc3ccccc3[nH]2)cc1` returned a solubility (kinetic) of 38.2 µg/mL (≈ 136 µM). Turning to `COc1cccc(NC(=S)Nc2cc(C)cc(C)n2)c1`, the kinetic solubility was determined as 0.3 µg/mL (≈ 1.04 µM). For the compound `Cc1cc(C)nc(SC/C=C/c2ccccc2)n1.Cl`, the kinetic solubility is 5.4 µg/mL. For `O=C(Cc1c(Cl)cccc1Cl)OCc1ccccn1` the value was 40.1 µg/mL (≈ 135 µM). For `Cc1cc(C)nc(NC(=O)c2ccc(Cl)cc2Cl)n1` the value was 42 µg/mL (≈ 142 µM); for `Cc1cccc(C)c1OCc1cc(C(=O)NC2CCC(O)CC2)no1` (configuration not stated), 19.4 µg/mL (≈ 56.3 µM); for `CC1(C)CC(=O)C(CC(=O)N2CCC(Cc3ccccc3)CC2)C(=O)C1`, greater than 53.3 µg/mL. `CC(C)c1nc2cc(Cl)ccc2n(Cc2ccccc2)c1=O`: the solubility (kinetic) was 0.4 µg/mL (≈ 1.28 µM).

In turn, `COc1ccc(C2NC(c3ccc(OC)cc3)C(C)C(=O)C2C)cc1` (configuration not stated) returned a solubility (kinetic) of 12.2 µg/mL (≈ 35.9 µM).

In turn, `COc1ccc(NC(=S)N2c3ccccc3CC2C)cc1OC` (configuration not stated) showed a solubility (kinetic) of 42.4 µg/mL (≈ 129 µM). To `C/C(=C\c1cccc(Cl)c1)C(=O)c1c(C)cc(C)[nH]c1=O` belongs greater than 45.3 µg/mL. `CC(C)Cc1nc2oc3c(NCC(C)O)ncnc3c2c2c1CCCC2` (configuration not stated) had a solubility (kinetic) of 2.1 µg/mL (≈ 5.92 µM).

In general, solubility (kinetic) refers to solubility judged after dilution from a stock solution rather than from solid.
